Where “and” joins values, the source holds several entries; their conditions need not be identical. Equal values may be shown once.
Legend:
[1] = system: chicken embryos; test: Embryo mortality after in ovo exposure (air sac injection E7, examined E12); type: in vivo, Gallus gallus domesticus; details: in ovo injection E7, sampled E12; 150 μg/egg
Protocol: Controls were injected with 20 μL vehicle only (DMSO).
Embryos were dissected and sampled on E12. The treatment group was concealed to the one carrying out embryo dissections and the order of dissection of the embryos was randomized. The embryos were examined for viability and gross morphology, e.g. appearance of the liver. The sex was determined by the presence of a pair of testes or an ovary.
Mortality rates were analyzed with Fisher’s exact test.

[2] = system: chicken embryos; test: Plasma lipids (total, LDL, HDL cholesterol, triacylglycerols), photometric; details: for HDL-C in plasma, mean ± SD / LDL-C in plasma, mean ± SD / LDL/HDL in plasma, mean ± SD / Total cholesterol in plasma, mean ± SD / Triacylglycerols in plasma, mean ± SD: E12, 150 μg/egg; for LDL/HDL: plasma
Protocol: The experimental procedures in this study were approved by the Uppsala Ethical Committee for Research on Animals (Permit number C 211/12). Fertilized chicken eggs (Gallus gallus domesticus) were obtained from a local breeder (Ova Production AB, Vittinge, Sweden). The egg weights were 60 ± 4 g (mean and standard deviation). The eggs were incubated at 37.5°C and 60% relative humidity with automatic turning every six hours. The day the eggs were placed in the incubator was defined as embryonic day zero (E0). Chicken embryos were exposed to test substances by air sac injection in eggs incubated for seven days (E7). At this stage, the extraembryonic allantoic blood vessel network has grown to cover the inner shell membrane beneath the air sac and the injected substance will come in direct contact with the vascular network. The exposures were performed as follows: Unfertilized eggs and poorly developing embryos were recognized by candling and were sorted out. Eggs with embryos of normal size were collected and randomly distributed into the different treatment groups. On E7, the blunt end of each egg was wiped with alcohol and a small hole was drilled through the shell above the air sac. The dissolved test substance (20 μl) was deposited onto the inner shell membrane in the air sac and the hole was sealed with melted paraffin wax. Following injection, eggs were held horizontally and rotated for a few seconds to allow dispersal over the inner shell membrane in the air sac. Each egg was marked with a number specifying the treatment group and was placed at a random location in the incubator.
The doses were 150 μg/egg (approximately 2.5 mg/kg egg) for GW7647 and rosiglitazone and 50, 250 or 1000 μg/egg for PFOA (approximately 0.83, 4.2 and 18 mg/kg egg, respectively). Controls were injected with 20 μL vehicle only (DMSO). Due to the large number of embryos required, the experiment was divided into four replicate experiments (replicate A-D) performed the same way but on separate occasions. The number of exposed embryos was 10–15 for each treatment group and replicate.
A subset of randomly chosen embryos from each group (except the 1000 μg/egg group) was sampled for metabolomic analysis of allantoic fluid and blood plasma. Samples of allantoic fluid and blood were collected before decapitation and dissection of the embryo as described below. The egg shell was removed above the air cell without disrupting the inner shell membrane. Allantoic fluid was collected by gently inserting a needle through the inner shell membrane and into the allantoic sac and then aspiring the fluid with a syringe. The samples were placed in microtubes on ice during sampling and then stored at -70°C until processed for metabolomic analysis. Blood was collected from the allantoic artery, just proximal to its first branch. The artery was gently cleaned from membranes, lifted with a small spoon and then punctured with a needle. Blood flowing into the spoon was immediately collected with heparinized capillaries. Blood was stored in heparinized microtubes on ice during sampling and was then centrifuged at a speed of 1300g for 10 min at 4°C. Plasma was collected and stored at -70°C. The embryos were killed by decapitation and dissected immediately following blood sampling.
Total cholesterol, low-density lipoprotein (LDL) cholesterol, high-density lipoprotein (HDL) cholesterol, and triacylglycerols in plasma were analyzed with an Architect c8000 (Abbott Diagnostics, Abbott Park, IL, USA), using a photometric method, at the department of Clinical Chemistry and Pharmacology, Uppsala University Hospital, Sweden. The laboratory is accredited according to EN/ISO 15189 medical laboratory requirements. A total of 80 samples were analyzed; control: 7 females and 8 males; GW7647: 7 females and 8 males; rosiglitazone: 5 females and 12 males; 50 μg PFOA/egg: 11 females and 6 males; 250 μg PFOA/egg: 10 females and 6 males.

Row | SMILES | Mortality rate [1] [%] | Mortality rate, Ratio [1] | HDL-C in plasma, mean ± SD [2] [mM] | LDL-C in plasma, mean ± SD [2] [mM] | LDL/HDL in plasma, mean ± SD [2] | Total cholesterol in plasma, mean ± SD [2] [mM] | Triacylglycerols in plasma, mean ± SD [2] [mM] | HDL-Cholesterol in plasma ([2]; group mean) [mM] | LDL-Cholesterol in plasma ([2]; group mean) [mM] | Total Cholesterol in plasma ([2]; group mean) [mM] | Triacylglycerols in plasma ([2]; group mean) [mM] | LDL/HDL ([2]; group mean) | HDL-Cholesterol in plasma ([2]; individual embryos) | LDL-Cholesterol in plasma ([2]; individual embryos) | Total Cholesterol in plasma ([2]; individual embryos) | Triacylglycerols in plasma ([2]; individual embryos) | LDL/HDL ([2]; individual embryos)
1 | CC(C)(Sc1ccc(CCN(CCCCC2CCCCC2)C(=O)NC2CCCCC2)cc1)C(=O)O [GW7647, reference compound] | 0 | 0/40 | 0.63 ± 0.05 | 1.5 ± 0.2 | 2.4 ± 0.4 | 5.5 ± 0.3 | 4.9 ± 0.7 | – | – | – | – | – | – | – | – | – | –
2 | CN(CCOc1ccc(CC2SC(=O)NC2=O)cc1)c1ccccn1 (stereo not drawn) [Rosiglitazone, rosiglitazone, reference compound] | 5 | 2/40 | 0.60 ± 0.06 | 1.5 ± 0.2 | 2.5 ± 0.4 | 5.2 ± 0.4 | 5.4 ± 0.8 | 0.60 | 1.5 | 5.2 | 5.4 | 2.5 | 0.65 mM and 0.59 mM and 0.53 mM and 0.58 mM and 0.55 mM and 0.71 mM and 0.6 mM and 0.7 mM and 0.57 mM and 0.51 mM and 0.69 mM and 0.52 mM and 0.61 mM | 2.00 mM and 1.70 mM and 1.20 mM and 1.50 mM and 1.10 mM and 1.60 mM and 1.40 mM and 1.00 mM and 1.80 mM | 5.8 mM and 4.8 mM and 4.1 mM and 5.4 mM and 4.9 mM and 5.5 mM and 5.9 mM and 5.2 mM and 5.3 mM and 5 mM and 5.6 mM | 4.5 mM and 4.3 mM and 4.7 mM and 6 mM and 5 mM and 5.3 mM and 5.6 mM and 4.6 mM and 7.1 mM and 6.3 mM and 6.4 mM and 5.5 mM | 3.1 and 2.9 and 2.3 and 2.6 and 2.7 and 2.1 and 2.8 and 1.7 and 2.5 and 2.0 and 2.2 and 3.0 and 3.5

Source: paper PMC4666608, “Metabolic Profiling of Chicken Embryos Exposed to Perfluorooctanoic Acid (PFOA) and Agonists to Peroxisome Proliferator-Activated Receptors” (PLoS ONE, 2015)
